# From publication PMC11555717 (Cancer Medicine, 2024)
# “Also recorded” adds a separate entry of the source. Marks after values point to notes of the source that are not given here.
# What was measured:
# [1] = test system: patients with locally advanced or mUC previously treated with platinum-based chemotherapy and PD-1/L1 inhibitors; conditions: cited from earlier work
# [2] = test system: patients with previously treated locally advanced or mUC; conditions: EV-301; cited from earlier work
# [3] = test system: Chinese patients with previously treated locally advanced or metastatic urothelial carcinoma; assay: EV-203 phase 2: antitumor activity per RECIST v1.1 (IRC and investigator), PFS, OS; assay type: in vivo, human; conditions: for Confirmed disease control rate (95% CI): CR, PR or stable disease; for Duration of response, median (95% CI): NE = not evaluable; for Confirmed best overall response: Stable disease: minimum duration 49 days; for Confirmed objective response rate (95% CI): RECIST v1.1, 1.25 mg/kg
# Description: This was a single‐arm, open‐label phase 2 study that enrolled patients from six centers in China. Up to 40 patients were planned for enrollment. Two of the study centers were designated as PK cohort sites and planned to enroll 12 or more patients who agreed to intensive PK sampling for PK analysis in addition to safety and efficacy assessments.
# The study enrolled Chinese adults (age ≥ 18 years or considered an adult per local regulations) with histologically or cytologically confirmed UC/transitional cell carcinoma of the bladder, renal pelvis, ureter, or urethra not amenable to curative intent treatment. Patients with other histologies, including adenocarcinoma, squamous differentiation, or mixed, were also eligible. Patients must have received prior treatment with platinum‐based chemotherapy and PD‐1/L1 inhibitor therapy in the locally advanced or metastatic setting or in the neoadjuvant or adjuvant setting with recurrence or progressive disease during therapy or within 12 months (platinum‐based chemotherapy) or 3 months (PD‐1/L1 inhibitor) of completion of treatment; had baseline measurable disease according to Response Evaluation Criteria in Solid Tumors (RECIST) version 1.1; and an Eastern Cooperative Oncology Group performance status (ECOG PS) of 0–1. Key exclusion criteria were preexisting grade 2 or higher sensory/motor neuropathy; active central nervous system metastases; clinically significant toxicity associated with prior treatment; ongoing grade 3 or higher immunotherapy‐related hypothyroidism or panhypopituitarism, ongoing immunotherapy‐related colitis, uveitis, myocarditis, or pneumonitis; other immunotherapy‐related adverse events (AEs) requiring high‐dose steroids (prednisone > 20 mg/day or equivalent); or history of uncontrolled diabetes mellitus (glycated hemoglobin ≥ 8% or between 7% and < 8% with diabetes‐related symptoms not otherwise explained) within 3 months prior to the first study dose.
# Study treatment continued until one or more of the following occurred: patient or investigator decision; documented radiologic disease progression per RECIST version 1.1 by investigator assessment; start of new anticancer therapy; unacceptable toxicity; pregnancy; protocol noncompliance; or more than six consecutive doses of study treatment missed by the patient. Prespecified dose modifications were permitted depending on AE type and severity.
# Antitumor activity was assessed every 8 weeks (±1 week) via computed tomography with contrast. After 1 year of study, imaging frequency was reduced to every 12 weeks (±1 week). Complete response (CR) and partial response (PR; per RECIST version 1.1) were confirmed by repeat scans conducted at least 4 weeks after the initial response. Responses were assessed by investigators and an independent review committee (IRC). Tumor assessments were continued until the study end or the first occurrence of radiologic disease progression per RECIST version 1.1, as determined by investigator assessment, the patient initiated new anticancer therapy, or the patient died, withdrew study consent, or was lost to follow‐up.
# The primary efficacy endpoint was confirmed ORR as assessed by IRC. The ORR was defined as the proportion of patients with CR or PR according to RECIST version 1.1. […] Other primary endpoints included selected PK parameters of ADC, TAb, and free MMAE.
# Secondary endpoints were confirmed ORR by investigator assessment; DOR, disease control rate (DCR), and progression‐free survival (PFS) by IRC and investigator assessments; OS; incidence of ATAs to ADC; and safety/tolerability. PFS was defined as the time from the start of the study treatment to the first documentation of objective tumor progression (i.e., progressive disease per RECIST version 1.1) by IRC or investigator assessment (whichever was specified) or to death due to any cause, whichever came first. OS was defined as the time from the start of study treatment to the date of death due to any cause. […]
# [4] = EV-203 immunogenicity: antitherapeutic antibodies (ATAs) against enfortumab vedotin; assay type: in vivo, human; conditions: 38 participants tested
# Description: In the PK cohort (i.e., PK analysis set), intensive PK sampling was performed wherein blood samples for analysis of ADC, total antibody (TAb), and free (unconjugated) MMAE were collected at prespecified time points. […] Blood samples for antitherapeutic antibodies (ATAs) were collected predose on Day 1 of cycles 1 to 4, 6, 8, 10, and within 30–37 days after the last study dose. Validated assays were used to measure concentrations of ADC, TAb, and free MMAE in serum or plasma and to assess ATA levels.
# Secondary endpoints were confirmed ORR by investigator assessment; DOR, disease control rate (DCR), and progression‐free survival (PFS) by IRC and investigator assessments; OS; incidence of ATAs to ADC; and safety/tolerability. PFS was defined as the time from the start of the study treatment to the first documentation of objective tumor progression (i.e., progressive disease per RECIST version 1.1) by IRC or investigator assessment (whichever was specified) or to death due to any cause, whichever came first. OS was defined as the time from the start of study treatment to the date of death due to any cause. […] Data for treatment‐related AEs (TRAEs) were evaluated by the investigator.
substance,measurement,setting,value
"enfortumab vedotin: fully human monoclonal ADC directed to Nectin-4, delivering intracellular monomethyl auristatin E (MMAE) to tumor cells",Median duration of response (DOR),[1]; EV-201,7.6 months
same,Objective response rate (ORR),[1]; EV-201 cohort 1 (n = 125),44%
same,Median OS,[2],12.88 months
same,Median PFS,[2],5.6 months
same,Probability of OS at 6 months,[2],approximately 80%
same,Median time to response,[3]; IRC assessment,"1.8 (range, 1.7–3.8) months"
same,Median PFS,"[3]; IRC assessment, N = 40",4.7 months
same,"Best overall response PR, patients","[3]; IRC, 14 patients",35.0%
same,Patients with reductions of 30% or more from baseline in target lesions,"[3]; IRC, 24 of 37 patients",64.9%
same,Patients with reduction in sum of diameters of target lesions from baseline,"[3]; IRC, 33 of 37 patients with baseline and postbaseline assessments",89.2%
same,Confirmed disease control rate (95% CI),"[3]; IRC, N = 40",72.5 (56.1–85.4) %
same,Rate of duration of response (95% CI) at 6 months,"[3]; IRC, Kaplan–Meier",59.7 (22.2–83.8) %
same,"Duration of response, median (95% CI)","[3]; IRC, Kaplan–Meier",not reached; also recorded: NE (2.04–NE)
same,Confirmed best overall response: CR,"[3]; IRC, N = 40",1 (2.5) n (%)
same,Confirmed best overall response: NE (not evaluable),"[3]; IRC, N = 40",4 (10.0) n (%)
same,Confirmed best overall response: PR,"[3]; IRC, N = 40",14 (35.0) n (%)
same,Confirmed best overall response: Progressive disease,"[3]; IRC, N = 40",7 (17.5) n (%)
same,Confirmed best overall response: Stable disease,"[3]; IRC, N = 40",14 (35.0) n (%)
same,Confirmed objective response rate (95% CI),"[3]; IRC, N = 40",37.5 (22.7–54.2) ^b %
same,"ORR, subgroup patients with liver metastases","[3]; IRC, n/N = 5/11",45.5%
same,"ORR, subgroup three or more lines of systemic therapy","[3]; IRC, n/N = 6/18",33.3%
same,"ORR, subgroup baseline ECOG PS of 0","[3]; IRC, n/N = 7/10",70.0%
same,"ORR, subgroup primary tumor site bladder or other","[3]; IRC, n/N = 7/11",63.6%
same,"ORR, subgroup primary tumor site upper tract","[3]; IRC, n/N = 8/29",27.6%
same,"ORR, subgroup baseline ECOG PS of 1","[3]; IRC, n/N = 8/30",26.7%
same,"Best overall response CR, patients","[3]; IRC, one patient",2.5%
same,Confirmed disease control rate (95% CI),"[3]; Investigator, N = 40",82.5 (67.2–92.7) %
same,Rate of duration of response (95% CI) at 6 months,"[3]; Investigator, Kaplan–Meier",61.1 (26.2–83.4) %
same,"Duration of response, median (95% CI)","[3]; Investigator, Kaplan–Meier",not reached; also recorded: NE (2.04–NE)
same,Confirmed best overall response: CR,"[3]; Investigator, N = 40",0 n (%)
same,Confirmed best overall response: NE (not evaluable),"[3]; Investigator, N = 40",3 (7.5) n (%)
same,Confirmed best overall response: PR,"[3]; Investigator, N = 40",17 (42.5) n (%)
same,Confirmed best overall response: Progressive disease,"[3]; Investigator, N = 40",4 (10.0) n (%)
same,Confirmed best overall response: Stable disease,"[3]; Investigator, N = 40",16 (40.0) n (%)
same,Confirmed objective response rate (95% CI),"[3]; Investigator, N = 40",42.5 (27.0–59.1) %
same,Overall survival at 6 months (95% CI),"[3]; Kaplan–Meier, N = 40",78.0 (60.1–88.6) %
same,Median PFS,"[3]; investigator assessment, N = 40",4.2 months
same,Median OS,[3]; median follow-up 6.5 months,not reached (lower bound of 95% CI: 6.74)
same,Incidence of positive ATAs postbaseline,[4],0%
